Data on five molecules can be found in US6268381A, “Taxane derivatives” (Kabushiki Kaisha Yakult Honsha, priority 1997, dated 2001).

SMILES strings stand for the structures. Values after ≈ are worked out from the molar mass of the structure shown.

For one data set, the system named is breast cancer. The following applies: Ann. int. Med. 111, 273, 1989; cited from earlier work.
Another data set has as its system ovarian cancer. The following applies: Ann. int. Med. 111, 273, 1989; cited from earlier work.
In a further data set the test system is KB cells. Kind of data set: Growth inhibitory activity against KB cells (Test 2, XTT assay). The note with it: for GI50: Homo sapiens, 72 h, 3 days culture; for Activity ratio: relative to Taxol (1.00). In kind it is cell-based, human. Here is the method:
Growth Inhibitory Activity of Taxane Derivatives (1)
As KB cells derived from a human mouth cancer, those purchased from Dainippon Pharmaceutical Co., Ltd. and stored in a lyophilized from at the Research Institute of that company was used. In Dulbecco's modified Eargle's medium containing 10% fetal bovine serum (product of NISSUI PHARMACEUTICAL CO., LTD.), the KB cells were cultured and maintained under the conditions of 5%, CO2 -ari and 37° C.
Each compound was used by dissolving it in DMSO at a concentration of 10 mg/mL.
On Day-1, cells which were in a logarithmic growth phase were inoculated at 2,000 cells/100 μl/well on 96-well microtiter plates (Falcon #3072) by using a phenol-red-free culture medium with 10% fetal bovine serum contained therein (Dulbecco's modified Eargle's medium (Sigma)), and were cultured overnight. On Day 0, the compounds each of which had been diluted to 0.03 to 10,000 ng/mL with the same culture medium were added in 100 μl aliquots to the individual wells, and the cells were cultured for 3 days. Three wells were used per each drug concentration. Each plate was provided with three blank wells containing only the culture medium and also with eight wells as a drug-untreated control.
Upon use, XTT (Sigma) was dissolved at a concentration of 1 mg/mL in each culture medium which was free of serum. Phenodin methosulfate (Sigma) dissolved at a concentration of 5 mM in PBS was added to the resulting solution at a volume ratio of 1/200. To each well, the solution so prepared was added in an amount of 50 μl per well. Subsequent to culture for 4 hours, OD was measured at 450 nm by ELISA.
Calculation of 50% Growth Inhibitory Concentration (GI50)
GI50 was calculated by interpolation from a concentration-growth inhibition rate (GIR) curve. GIR was determined in accordance with the following formula: [formula]
On the technique in general: Tetrazolium assays rely on reduction of a dye to a coloured formazan, in cell work by metabolically active cells.

A short description of data set [1]: Solubility test of water-soluble taxane derivatives (Test 1, HPLC). In kind it is physicochemical. The note with it: purified water + 1.05 eq. 0.1N hydrochloric acid, shaken 2 hours at room temperature. Here is the method: Solubilities of Novel Water-soluble Taxane Derivatives
I) Preparation of a calibration curve
Compound (1-4) was weighed in an amount of 2.3 mg, to which 2.3 mL of acetonitrile was added so that the compound was dissolved to provide a standard solution. Using a 10 μL portion of the standard solution, the test was conducted by HPLC (operation conditions 1). The peak area of Compound (1-4), which had been obtained from the chromatogram of the standard solution, was measured by automated integration. The peak area obtained as an average of three measurements was plotted against the amount (10 μg) of Compound (1-4) per 10 μL, whereby a calibration curve was prepared.
Calibration curve of Compound (1-4): Y =1.518 ×10^-5 X [X: peak area, Y: amount (μg) of Compound (1-4)] [HPLC operation conditions 1] Column: Inertsil ODS-2 (5-250), 40 deg. Mobile phase: 0.01M KH2 PO4 --CH3 CN (3:2). Flow rate: 1.0 mL/min. Detection: Ultraviolet absorption photometer (225 nm), 0.2 AUFS.
II) Solubility test of Compound (1-4):
Compound (1-4) was weighed in an amount of 3.7 mg and then suspended in 2.0 mL of purified water. To the resulting suspension, 41.3 μL (1.05 eq.) of 0.1N hydrochloric acid was added. […] From the area obtained as an average of three measurements, the solubility of the compound (1-4) was determined. […]

For `CC(=O)O[C@H]1C(=O)[C@@]2(C)[C@H]([C@H](OC(=O)c3ccccc3)[C@]3(O)C[C@H](OC(=O)[C@H](O)[C@@H](NC(=O)c4ccccc4)c4ccccc4)C(C)=C1C3(C)C)[C@]1(OC(C)=O)CO[C@@H]1C[C@@H]2O` [Taxol], the “Efficacy against breast cancer” value in the data set on breast cancer is reported as “high efficacy”. Moreover, the “Efficacy against ovarian cancer” value with ovarian cancer is recorded as “high efficacy”. Moreover, the GI50 (as a rule, the concentration at which growth is held to half of that of the control) in the data set on KB cells was 1.3 ng/mL (≈ 1.52 nM).
For `CCCN(CCC)C1CCN(C(=O)O[C@H]2C(=O)[C@@]3(C)[C@H]([C@H](OC(=O)c4ccccc4)[C@]4(O)C[C@H](OC(=O)[C@H](O)[C@@H](NC(=O)OC(C)(C)C)c5ccco5)C(C)=C2C4(C)C)[C@]2(OC(C)=O)CO[C@@H]2C[C@@H]3O)CC1` [Compound 1-3, 13-0-[3-(tert-Butoxycarbonylamino)-3-(2-furyl)-2-hydroxypropionyl]-10-0-(4-dipropylaminopiperidinocarbonyl)-10-deacetylbaccatin III], in the data set with KB cells, the GI50 amounted to 0.43 ng/mL (≈ 0.427 nM) and the Activity ratio was determined as 3.02.
Taken in the same sequence, the figures for `CC(=O)O[C@@]12CO[C@@H]1C[C@H](O)[C@@]1(C)C(=O)[C@H](OC(=O)N3CCN(C)CC3)C3=C(C)[C@@H](OC(=O)[C@H](O)[C@@H](NC(=O)OC(C)(C)C)c4ccoc4)C[C@@](O)([C@@H](OC(=O)c4ccccc4)[C@H]21)C3(C)C` [Compound 1-2] were 0.28 ng/mL (≈ 0.303 nM) and 4.64.
With `CC(=O)O[C@@]12CO[C@@H]1C[C@H](O)[C@@]1(C)C(=O)[C@H](OC(=O)N3CCC(N4CCCCC4)CC3)C3=C(C)[C@@H](OC(=O)[C@H](O)[C@@H](NC(=O)OC(C)(C)C)c4ccoc4)C[C@@](O)([C@@H](OC(=O)c4ccccc4)[C@H]21)C3(C)C` [Compound 1-1, 13-0-[3-(tert-Butoxycarbonylamino)-3-(3-furyl)-2-hydroxypropionyl]-10-0-(4-piperidinopiperidinocarbonyl)-10-deacetylbaccatin III], in the data set with KB cells, the GI50 was 0.48 ng/mL (≈ 0.484 nM) and the Activity ratio came to 2.70.
For `CCN1CCN(C(=O)O[C@H]2C(=O)[C@@]3(C)[C@H]([C@H](OC(=O)c4ccccc4)[C@]4(O)C[C@H](OC(=O)[C@H](O)[C@@H](NC(=O)OC(C)(C)C)c5ccco5)C(C)=C2C4(C)C)[C@]2(OC(C)=O)CO[C@@H]2C[C@@H]3O)CC1` [Compound 1-4, 13-0-[3-(tert-Butoxycarbonylamino)-3-(2-furyl)-2-hydroxypropionyl]-10-0-(4-ethylpipezinocarbonyl)-10-deacetylbaccatin III], in data set [1] (average of three measurements), the Amount dissolved was 7.87 μg/5 μL. Further, the solubility (as a rule, the concentration that dissolves in the medium under given conditions) at 2 h in data set [1] (water + 0.1n hcl) came out at 1.57 mg/mL. In the data set on KB cells, the GI50 was 0.23 ng/mL (≈ 0.245 nM) and the Activity ratio is 5.65.
